Data published in patent publication US11332485B2, “Penicillin-binding protein inhibitors” (priority 2017, dated 2022).
Where two headings read alike, the source gives them in different places.

Key:
[1] = tested on: hyper-permeable E. coli 901C; assay: Broth microdilution MIC assay; assay type: cell-based; conditions: Escherichia coli, read-out: E. coli 901C MIC
How it was run: (§1)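 Visual no-growth endpoint defines the MIC. Inoculum of 5×10^5 CFU/mL in divalent-cation-supplemented Mueller-Hinton broth was exposed to 2-fold dilution series of compound, then incubated 16-20 hours at 37° C per CLSI.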

S. aureus ATCC 29213 = assay: Broth microdilution MIC assay; assay type: cell-based; conditions: Staphylococcus aureus, ATCC29213; broth microdilution, 16-20 hours at 37° C.; read-out: S. aureus 29213 MIC
How it was run: as §1

[2] = tested on: E. coli DH5α/pLBII-CTX-M15; assay: Broth microdilution MIC assay, engineered strain producing CTX-M15; assay type: cell-based, Escherichia coli; conditions: Escherichia coli, read-out: E. coli DH5α/pLBII-CTX-M15 Microbiological Activity (MIC)
How it was run: (§2)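 CLSI broth microdilution in cation-supplemented Mueller-Hinton broth, 2-fold compound dilutions, 5×10^5 CFU/mL inoculum, 16-20 h at 37° C, MIC read visually as lowest concentration without growth. E. coli DH5α carries CTX-M15 on pLBII under Lac promoter, or empty pLBII as control.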

E. coli DH5α/pLBII = assay: Broth microdilution MIC assay, empty vector control strain; assay type: cell-based; conditions: Escherichia coli, read-out: E. coli DH5α/pLBII Microbiological Activity (MIC)
How it was run: as §2

[3] = target: T1, PBP1a from Escherichia coli (Escherichia coli, UniProt P02918); assay: Radioligand competition binding assay with 14C-labeled boronic acid probe (Example 96); conditions: PBP 0.1 μM
T1 construct: made in house
Source text: (§3) To determine the ability of boronic acid-based test PBP inhibitors to bind Penicillin Binding Proteins (PBPs), a radio-labelled boronic acid PBP inhibitor (Example 96) was used in competition binding assays to determine boronic acid PBP inhibitor binding to PBP1a or PBP1b from Escherichia coli. PBP1a and PBP1b were purified as described previously (Bertsche, U.; et al., J. Biol. Chem. 2005, 280 (45), 38096-38101; Born, P.; et al., J Biol. Chem. 2006. 281 (37), 26985-26993). To establish assay conditions for competition binding, an enzyme titration/saturation binding experiment was performed. Saturation binding was performed in a buffer comprised of 20 mM Tris (pH 7.5), 500 mM NaCl and 0.1% (v/v) TritonX-100, with PBP1a/PBP1b at a final concentration of 0.1 μM and 96 at final concentrations ranging from 0-100 μM. Mixtures were incubated for 60 minutes, then applied to Zeba Spin Desalting columns or plates (ThermoFisher Scientific) and centrifuged at 1000-1500×g for 2 minutes. The flow through, containing PBP bound with 96, was recovered and 100 μL mixed with 5 mL of UltimaGold liquid scintillation cocktail (Perkin Elmer), and the radioactivity counted using a Beckman Coulter LS 6500 Multipurpose scintillation counter. PBP binding of 96 approached saturation at 20 μM of ^14C-labeled probe. The competition binding assay was validated using the beta-lactam ampicillin, with 96 at a final concentration of 20 μM, PBP1a/PBP1b at a final concentration of 0.1 μM. PBP1a/PBP1b was incubated with ampicillin in a 96-well microplate for 60 minutes, then 96 was added and the mixtures incubated for an additional 60 minutes. The mixtures were then applied to Zeba Spin desalting plates and centrifuged at 1000×g for 2 minutes. The flow through was recovered and 100 μl mixed with 5 ml of UltimaGold liquid scintillation cocktail and the radioactivity counted. Ampicillin inhibited binding of 96 with an EC50 (the concentration of inhibitor required to reduce binding of 96 by 50%) of less than 0.5 μM. Binding assays with boronic acid PBP inhibitors were performed in an identical fashion. The potency of boronic acid PBP inhibitors was reported as the EC50 value.
(§4) Representative results are shown in Table 5, where A represents a potency of >100 μM, B represents a potency between 10 μM and 100 μM inclusive, and C represents a potency of <10 μM. NT=Not Tested.

[4] = target: T2, PBP3 from Escherichia coli (Escherichia coli, UniProt P0AD68); assay: Fluorescence polarization competition binding assay with Bocillin-FL
T2 construct: made in house
How it was run: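 Fluorescence polarization competition assay with Bocillin-FL at 0.1 μM final and purified E. coli PBP3 at 1.5 μM final in 50 mM Hepes pH 8.0, 300 mM NaCl, 5% glycerol. Inhibitor preincubated with PBP3 for 30 min before probe addition; FP then read continuously for 60 min. Potency reported in binned categories.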

[5] = target: T3, PBP1b from Escherichia coli (Escherichia coli, UniProt P02919); assay: Radioligand competition binding assay with 14C-labeled boronic acid probe (Example 96); conditions: 14C-labeled probe 96 at 20 μM, PBP 0.1 μM; read-out: E. coli K12 PBP1b EC50
T3 construct: made in house
Source text: as §3, §4

[6] = 14C-labeled probe 96 at 20 μM, read-out: E. coli K12 PBP1a EC50
[7] = E. coli K12 PBP1a EC50, 14C-labeled probe 96 at 20 μM

T1 sequence (P02918 whole entry): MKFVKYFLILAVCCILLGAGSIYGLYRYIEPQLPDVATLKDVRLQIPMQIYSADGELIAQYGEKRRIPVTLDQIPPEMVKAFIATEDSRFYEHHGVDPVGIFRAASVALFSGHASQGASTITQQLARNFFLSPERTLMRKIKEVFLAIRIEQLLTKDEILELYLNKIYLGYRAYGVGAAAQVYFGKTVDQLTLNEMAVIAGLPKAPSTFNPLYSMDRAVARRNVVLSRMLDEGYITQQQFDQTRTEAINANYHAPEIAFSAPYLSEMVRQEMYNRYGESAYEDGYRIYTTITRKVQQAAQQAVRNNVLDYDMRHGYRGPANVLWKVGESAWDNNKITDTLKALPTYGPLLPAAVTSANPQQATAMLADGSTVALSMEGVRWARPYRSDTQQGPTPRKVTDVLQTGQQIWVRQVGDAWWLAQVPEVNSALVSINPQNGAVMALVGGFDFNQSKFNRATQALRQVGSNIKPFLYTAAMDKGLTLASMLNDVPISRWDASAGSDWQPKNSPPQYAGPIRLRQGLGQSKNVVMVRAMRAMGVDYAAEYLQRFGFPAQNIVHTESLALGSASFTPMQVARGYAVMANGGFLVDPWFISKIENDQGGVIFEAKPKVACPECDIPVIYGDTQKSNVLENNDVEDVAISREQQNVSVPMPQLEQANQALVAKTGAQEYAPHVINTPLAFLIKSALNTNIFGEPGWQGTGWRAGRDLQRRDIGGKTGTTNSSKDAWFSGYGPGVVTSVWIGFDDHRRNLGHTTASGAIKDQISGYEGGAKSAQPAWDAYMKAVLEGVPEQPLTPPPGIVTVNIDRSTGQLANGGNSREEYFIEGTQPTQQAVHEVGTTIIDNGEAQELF
T2 sequence (P0AD68 1-577): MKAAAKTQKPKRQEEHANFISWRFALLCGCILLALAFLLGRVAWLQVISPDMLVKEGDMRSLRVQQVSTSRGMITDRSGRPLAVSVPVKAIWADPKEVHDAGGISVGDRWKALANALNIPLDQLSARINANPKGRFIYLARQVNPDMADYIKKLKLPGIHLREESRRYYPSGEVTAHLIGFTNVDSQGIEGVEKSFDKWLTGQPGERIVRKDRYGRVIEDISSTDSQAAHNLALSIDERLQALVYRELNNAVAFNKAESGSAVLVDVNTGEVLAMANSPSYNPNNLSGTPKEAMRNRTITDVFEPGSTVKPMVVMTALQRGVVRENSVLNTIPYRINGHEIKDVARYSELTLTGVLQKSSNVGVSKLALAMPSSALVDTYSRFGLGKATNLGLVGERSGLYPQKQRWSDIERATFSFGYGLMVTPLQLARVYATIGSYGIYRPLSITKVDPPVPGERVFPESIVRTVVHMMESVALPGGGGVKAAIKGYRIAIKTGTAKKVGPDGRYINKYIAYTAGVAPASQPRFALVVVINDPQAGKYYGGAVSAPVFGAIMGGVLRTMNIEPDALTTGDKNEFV
T3 sequence (P02919 whole entry): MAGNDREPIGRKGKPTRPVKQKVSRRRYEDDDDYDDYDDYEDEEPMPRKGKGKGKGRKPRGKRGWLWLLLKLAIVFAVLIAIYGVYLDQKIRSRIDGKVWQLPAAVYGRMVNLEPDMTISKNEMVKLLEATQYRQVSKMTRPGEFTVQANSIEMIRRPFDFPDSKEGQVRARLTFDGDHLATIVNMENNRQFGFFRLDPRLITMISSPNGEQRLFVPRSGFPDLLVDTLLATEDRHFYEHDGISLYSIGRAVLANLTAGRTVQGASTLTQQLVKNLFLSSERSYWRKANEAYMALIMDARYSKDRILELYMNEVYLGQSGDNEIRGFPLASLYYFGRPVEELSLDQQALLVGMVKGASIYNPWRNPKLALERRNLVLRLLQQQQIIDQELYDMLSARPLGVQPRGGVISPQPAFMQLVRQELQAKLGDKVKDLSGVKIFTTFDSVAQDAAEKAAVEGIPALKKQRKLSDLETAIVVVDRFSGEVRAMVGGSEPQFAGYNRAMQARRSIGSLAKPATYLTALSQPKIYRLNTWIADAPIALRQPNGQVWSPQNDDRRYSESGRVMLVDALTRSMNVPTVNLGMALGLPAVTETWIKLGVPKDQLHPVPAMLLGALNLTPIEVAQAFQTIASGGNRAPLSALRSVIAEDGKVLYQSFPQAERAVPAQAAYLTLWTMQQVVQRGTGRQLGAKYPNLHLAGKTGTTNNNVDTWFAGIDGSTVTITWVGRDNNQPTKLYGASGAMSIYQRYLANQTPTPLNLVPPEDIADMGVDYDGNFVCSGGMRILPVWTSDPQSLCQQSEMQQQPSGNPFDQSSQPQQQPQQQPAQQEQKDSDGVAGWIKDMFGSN

| SMILES | MIC [1] [mg/L] | MIC (S. aureus ATCC 29213) [mg/L] | MIC [2] [mg/L] | MIC (E. coli DH5α/pLBII) [mg/L] | EC50 [3, 6] [µM] | EC50 [4] [µM] | EC50 [3, 7] [µM] | EC50 [5] [µM] |
| --- | --- | --- | --- | --- | --- | --- | --- | --- |
| Nc1nc(C(=O)NC(C(=O)N[C@H]2Cc3cccc(C(=O)O)c3OB2O)c2csc(N)n2)cs1 (stereo partly drawn) [Example 17, (3R)-3-(2-(2-aminothiazol-4-yl)-2-(2-aminothiazole-4-carboxamido)acetamido)-2-hydroxy-3,4-dihydro-2H-benzo[e][1,2]oxaborinine-8-carboxylic acid] | < 64 | < 64 | 32 to 64 | 32 to 64 | > 100 | 30 to 500 |  |  |
| Nc1nc(C(NC(=O)N2CCNC2=O)C(=O)N[C@H]2Cc3cccc(C(=O)O)c3OB2O)cs1 (stereo partly drawn) [Example 19, (3R)-3-(2-(2-aminothiazol-4-yl)-2-(2-oxoimidazolidine-1-carboxamido)acetamido)-2-hydroxy-3,4-dihydro-2H-benzo[e][1,2]oxaborinine-8-carboxylic acid] | < 64 | 64 to 128 | 32 to 64 | 32 to 64 | < 10 | 30 to 500 |  |  |
| CS(=O)(=O)N1CCN(C(=O)NC(C(=O)N[C@H]2Cc3cccc(C(=O)O)c3OB2O)c2csc(N)n2)C1=O (stereo partly drawn) [Example 20, (3R)-3-(2-(2-aminothiazol-4-yl)-2-(3-(methylsulfonyl)-2-oxoimidazolidine-1-carboxamido)acetamido)-2-hydroxy-3,4-dihydro-2H-benzo[e][1,2]oxaborinine-8-carboxylic acid] | < 64 | 64 to 128 | 32 to 64 | 32 to 64 | < 10 | 30 to 500 |  |  |
| CCN1CCN(C(=O)NC(C(=O)N[C@H]2Cc3cc(OC)cc(C(=O)O)c3OB2O)c2csc(N)n2)C(=O)C1=O (stereo partly drawn) [Example 38, (3R)-3-(2-(2-aminothiazol-4-yl)-2-(4-ethyl-2,3-dioxopiperazine-1-carboxamido)acetamido)-2-hydroxy-6-methoxy-3,4-dihydro-2H-benzo[e][1,2]oxaborinine-8-carboxylic acid] | < 64 | 64 to 128 | 32 to 64 | 32 to 64 | < 10 | > 500 |  |  |
| CCN1CCN(C(=O)NC(C(=O)N[C@H]2Cc3cc(O)cc(C(=O)O)c3OB2O)c2csc(N)n2)C(=O)C1=O (stereo partly drawn) [Example 39, (3R)-3-(2-(2-aminothiazol-4-yl)-2-(4-ethyl-2,3-dioxopiperazine-1-carboxamido)acetamido)-2,6-dihydroxy-3,4-dihydro-2H-benzo[e][1,2]oxaborinine-8-carboxylic acid] | < 64 | > 128 | 32 to 64 | 32 to 64 |  | 30 to 500 | 10 to 100 |  |
| CN1CCN(C(=O)NC(C(=O)N[C@H]2Cc3cccc(C(=O)O)c3OB2O)c2csc(N)n2)C(=O)C1=O (stereo partly drawn) [Example 43, (3R)-3-(2-(2-aminothiazol-4-yl)-2-(4-methyl-2,3-dioxopiperazine-1-carboxamido)acetamido)-2-hydroxy-3,4-dihydro-2H-benzo[e][1,2]oxaborinine-8-carboxylic acid] | < 64 | 64 to 128 | 32 to 64 | 32 to 64 | > 100 | 30 to 500 |  |  |
| Nc1nc(C(NC(=O)N2CCN(C3CC3)C(=O)C2=O)C(=O)N[C@H]2Cc3cccc(C(=O)O)c3OB2O)cs1 (stereo partly drawn) [Example 44, (3R)-3-(2-(2-aminothiazol-4-yl)-2-(4-cyclopropyl-2,3-dioxopiperazine-1-carboxamido)acetamido)-2-hydroxy-3,4-dihydro-2H-benzo[e][1,2]oxaborinine-8-carboxylic acid] | < 64 | 64 to 128 | 32 to 64 | 32 to 64 | < 10 | 30 to 500 |  |  |
| CCN1CCN(CC(=O)NC(C(=O)N[C@H]2Cc3cccc(C(=O)O)c3OB2O)c2csc(N)n2)C(=O)C1=O (stereo partly drawn) [Example 45, (3R)-3-(2-(2-aminothiazol-4-yl)-2-(2-(4-ethyl-2,3-dioxopiperazin-1-yl)acetamido)acetamido)-2-hydroxy-3,4-dihydro-2H-benzo[e][1,2]oxaborinine-8-carboxylic acid] | < 64 | > 128 | 32 to 64 | 32 to 64 | < 10 | 30 to 500 |  |  |
| CCN1CCN(C(=O)N[C@@H](C(=O)N[C@H]2Cc3cccc(C(=O)O)c3OB2O)[C@H](C)O)C(=O)C1=O [Example 47, (R)-3-((2R,3S)-2-(4-Ethyl-2,3-dioxopiperazine-1-carboxamido)-3-hydroxy-butanamido)-2-hydroxy-3,4-dihydro-2H-benzo[e][1,2]oxaborinine-8-carboxylic acid] | < 64 | > 128 | 8 to 16 | 8 to 16 | < 10 | > 500 |  |  |
| CCN1CCN(C(=O)N[C@@H](C(=O)N[C@H]2Cc3cccc(C(=O)O)c3OB2O)[C@@H](C)O)C(=O)C1=O [Example 48, (R)-3-((2R,3R)-2-(4-Ethyl-2,3-dioxopiperazine-1-carboxamido)-3-hydroxy-butanamido)-2-hydroxy-3,4-dihydro-2H-benzo[e][1,2]oxaborinine-8-carboxylic acid] | < 64 | > 128 | 8 to 16 | 8 to 16 | < 10 | 30 to 500 |  |  |
| Nc1nc(C(NC(=O)N2CCS(=O)(=O)CC2)C(=O)N[C@H]2Cc3cccc(C(=O)O)c3OB2O)cs1 (stereo partly drawn) [Example 65, (3R)-3-(2-(2-aminothiazol-4-yl)-2-(1,1-dioxidothiomorpholine-4-carboxamido)acetamido)-2-hydroxy-3,4-dihydro-2H-benzo[e][1,2]oxaborinine-8-carboxylic acid] | < 64 | 64 to 128 | 32 to 64 | 32 to 64 |  | 30 to 500 | < 10 |  |
| CCN1CCN(C(=O)NC(Cc2ccccc2)C(=O)N[C@H]2Cc3cccc(C(=O)O)c3OB2O)C(=O)C1=O (stereo partly drawn) [Example 79, (3R)-3-(2-(4-ethyl-2,3-dioxopiperazine-1-carboxamido)-3-phenylpropanamido)-2-hydroxy-3,4-dihydro-2H-benzo[e][1,2]oxaborinine-8-carboxylic acid] | < 64 | < 64 |  |  |  | 30 to 500 |  | < 10 |
| C[C@@H](O)[C@@H](NC(=O)N1CCN(CCF)C(=O)C1=O)C(=O)N[C@H]1Cc2cccc(C(=O)O)c2OB1O [Example 91, (R)-3-((2R,3R)-2-(4-(2-fluoroethyl)-2,3-dioxopiperazine-1-carboxamido)-3-hydroxybutanamido)-2-hydroxy-3,4-dihydro-2H-benzo[e][1,2]oxaborinine-8-carboxylic acid] | < 64 | > 128 | 8 to 16 |  |  | > 500 |  | < 10 |
